ChEMBL document CHEMBL1201862, “PubChem BioAssay data set” (2004)
The source made the active and inactive calls.

Key:
[1] = viability loss in THP-1 monocytes – THP-1 cells, cytotoxicity control for Vif-APOBEC3G degradation inhibitor project, dose response (AID 1117359); type: functional; details: THP-1
[2] = HIV-1 Vif–A3G interaction blockers – biochemical, TR-FRET, GST-Vif 1-94, biotin-A3G peptide, dose response retest, primary screen (AID 1117319); type: functional;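 also: TR-FRET signal of purified GST-Vif binding a biotinylated A3G peptide; inhibitors lower the FRET signal by blocking Vif and A3G binding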
[3] = HEK293 Cytotoxicity Assay Measured in Cell-Based System Using Plate Reader - 7071-01_Inhibitor_Dose_CherryPick_Activity_Set2.; type: functional
HEK293 = assay: viability loss in HEK293T cells – cell-based, ATP luminescence, cherry-pick samples, cytotoxicity control, dose response (AID 687005); type: functional; details: Homo sapiens;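 also: cells exposed to compound for 48 hours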
Kallikrein-7 = Kallikrein-7 (Homo sapiens, UniProt P49862); assay: Fluorescence Intensity-based biochemical primary high throughput dose response assay to identify activators of kallikrein-7 (K7) zymogen.
[4] = biological target: T1, RNA-binding protein pos-1 (Caenorhabditis elegans, UniProt G5EF15); assay: disruptors of C. elegans POS-1 RNA interaction – biochemical, fluorescence polarization, dose response (AID 1964);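 also: purified POS-1 fused to maltose binding protein made in E. coli; potency of compounds blocking POS-1 binding to fluorescent RNA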
T1 sequence (G5EF15 whole entry): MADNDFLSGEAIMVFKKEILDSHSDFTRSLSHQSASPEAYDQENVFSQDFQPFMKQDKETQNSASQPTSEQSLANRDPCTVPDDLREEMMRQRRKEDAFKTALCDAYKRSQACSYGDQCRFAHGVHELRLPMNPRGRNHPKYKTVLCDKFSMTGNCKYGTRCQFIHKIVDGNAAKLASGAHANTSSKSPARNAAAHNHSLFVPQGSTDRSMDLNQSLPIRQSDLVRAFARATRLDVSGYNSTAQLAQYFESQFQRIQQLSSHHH

[5] = biological target: T2, Histone-lysine N-methyltransferase NSD2 (Homo sapiens, UniProt O96028); type: biochemical
T2 sequence (O96028 whole entry): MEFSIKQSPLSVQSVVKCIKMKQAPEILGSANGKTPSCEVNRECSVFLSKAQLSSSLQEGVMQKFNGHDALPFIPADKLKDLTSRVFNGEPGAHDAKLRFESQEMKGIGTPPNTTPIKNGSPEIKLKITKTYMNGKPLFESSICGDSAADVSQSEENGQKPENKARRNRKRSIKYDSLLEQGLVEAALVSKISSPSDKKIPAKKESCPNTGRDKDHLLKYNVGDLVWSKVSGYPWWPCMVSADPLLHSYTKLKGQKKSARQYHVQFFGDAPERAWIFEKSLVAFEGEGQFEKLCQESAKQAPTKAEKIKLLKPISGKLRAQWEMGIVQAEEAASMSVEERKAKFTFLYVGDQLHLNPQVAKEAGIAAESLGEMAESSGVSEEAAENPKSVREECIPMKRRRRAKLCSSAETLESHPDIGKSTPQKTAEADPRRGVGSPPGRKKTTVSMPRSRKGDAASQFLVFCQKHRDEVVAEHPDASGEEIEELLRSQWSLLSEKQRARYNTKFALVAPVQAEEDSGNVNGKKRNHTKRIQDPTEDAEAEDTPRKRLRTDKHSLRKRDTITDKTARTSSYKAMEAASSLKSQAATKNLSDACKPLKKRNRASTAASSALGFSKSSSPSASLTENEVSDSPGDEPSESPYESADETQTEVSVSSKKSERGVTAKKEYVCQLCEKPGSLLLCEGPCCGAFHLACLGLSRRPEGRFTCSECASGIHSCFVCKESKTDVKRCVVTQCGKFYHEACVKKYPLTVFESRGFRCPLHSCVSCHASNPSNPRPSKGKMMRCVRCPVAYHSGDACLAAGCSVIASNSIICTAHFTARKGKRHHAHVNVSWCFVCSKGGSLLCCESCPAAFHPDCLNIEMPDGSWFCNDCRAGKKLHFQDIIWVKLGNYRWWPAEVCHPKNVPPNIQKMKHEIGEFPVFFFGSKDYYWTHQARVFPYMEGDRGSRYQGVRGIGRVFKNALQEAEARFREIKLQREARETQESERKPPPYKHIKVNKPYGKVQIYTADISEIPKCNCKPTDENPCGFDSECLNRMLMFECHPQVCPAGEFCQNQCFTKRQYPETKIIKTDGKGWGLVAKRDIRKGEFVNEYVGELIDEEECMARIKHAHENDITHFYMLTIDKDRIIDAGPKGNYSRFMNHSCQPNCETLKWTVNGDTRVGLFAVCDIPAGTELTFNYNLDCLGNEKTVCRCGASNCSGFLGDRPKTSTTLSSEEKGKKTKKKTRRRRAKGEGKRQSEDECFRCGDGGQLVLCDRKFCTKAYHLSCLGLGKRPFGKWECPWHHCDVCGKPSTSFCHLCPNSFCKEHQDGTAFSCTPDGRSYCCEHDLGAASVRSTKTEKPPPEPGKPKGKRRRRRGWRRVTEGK

[6] = biological target: T3, Zinc finger protein mex-5 (Caenorhabditis elegans, UniProt Q9XUB2); assay: potency of MEX-5 RNA-binding blockers – biochemical, C. elegans, fluorescence polarization, dose response (AID 1960)
T3 sequence (Q9XUB2 whole entry): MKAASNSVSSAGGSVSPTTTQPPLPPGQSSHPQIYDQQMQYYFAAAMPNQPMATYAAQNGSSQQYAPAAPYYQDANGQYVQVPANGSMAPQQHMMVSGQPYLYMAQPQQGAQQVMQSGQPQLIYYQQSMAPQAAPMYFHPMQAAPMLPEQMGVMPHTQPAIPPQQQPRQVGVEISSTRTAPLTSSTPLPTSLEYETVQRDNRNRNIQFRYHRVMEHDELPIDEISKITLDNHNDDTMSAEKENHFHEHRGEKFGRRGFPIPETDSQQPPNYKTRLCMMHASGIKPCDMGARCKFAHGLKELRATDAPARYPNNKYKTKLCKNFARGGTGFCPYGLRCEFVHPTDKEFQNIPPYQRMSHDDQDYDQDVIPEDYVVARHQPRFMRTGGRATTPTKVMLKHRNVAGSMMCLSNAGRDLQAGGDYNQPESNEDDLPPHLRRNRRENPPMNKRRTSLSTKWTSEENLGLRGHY

[7] = Luminescence Cell-Based Dose Confirmation to Identify Activators of 5'UTR Stem-Loop Driven Alpha-Synuclein mRNA Translation in H4 Neuroglioblastoma Cells. [Related pubchem assays: 1829 (Project Summary), 1814 (Primary HTS)]; type: functional
[8] = Luminescence Cell-Based Dose Response to Identify Activators of Luciferase Translation or Activity in H4-C Neuroglioblastoma Cells. [Related pubchem assays: 1829 (Project Summary), 1814 (Primary HTS)]; type: functional
[9] = Luminescence Cell-Based Dose Response HTS to Identify Activators of Luciferase Translation or Activity in H4 […] Cells. [Related pubchem assays: 1829 (Project Summary), 1814 (Primary HTS)]; type: functional
[10] = Luminescence Cell-Based Dose Confirmation HTS to Identify Activators of 5'UTR Stem-Loop Driven Alpha-Synuclein mRNA Translation in H4 Neuroglioblastoma Cells. [Related pubchem assays: 1829 (Project Summary), 1814 (Primary HTS)]; type: functional
[11] = Luminescence Cell-Based Dose Response to Identify Activators of 5'UTR Stem-Loop Driven Prion Protein mRNA Translation in H4-C Neuroglioblastoma Cells. [Related pubchem assays: 1829 (Project Summary), 1814 (Primary HTS)]; type: functional
H4 = assay: Luminescence Cell-Based Dose Response HTS to Identify Activators of 5'UTR Stem-Loop Driven Prion Protein mRNA Translation in H4 Neuroglioblastoma Cells. [Related pubchem assays: 1829 (Project Summary), 1814 (Primary HTS)]; type: functional; details: Homo sapiens
[12] = blockers of bursicon-stimulated LGR2 cAMP reporter – cell-based, HEK293, CRE-luciferase reporter, cherry pick, set 2, dose response (AID 743343); type: functional;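 also: transfected cells were stimulated with diluted bursicon conditioned medium after compound addition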
[13] = blockade of melanocortin 4 receptor signaling – cell-based, plate reader, cherry pick, counter-screen for LGR2 antagonist project, dose response (AID 743444); type: functional;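 also: transfected HEK 293 cells stimulated with alpha-MSH peptide; potency of inhibitors of the alpha-MSH evoked signal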
[14] = A549 cell cytotoxicity, dose response, cytotoxicity control, plate reader, cherry-pick, antagonist series (AID 743412); type: functional, cell-based
Cytochrome P450 2D6 = Cytochrome P450 2D6 (Homo sapiens, UniProt P10635);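 also: CYP2D6 member of a cytochrome P450 panel assay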
[15] = biological target: Disintegrin and metalloproteinase domain-containing protein 17 (Homo sapiens, UniProt P78536); assay: inhibition of ADAM17 substrate cleavage – biochemical, quenched FRET substrate, counter-screen for ADAM10 exosite inhibitor project, dose response (AID 743253)
Cytochrome P450 2C9 = Cytochrome P450 2C9 (Homo sapiens, UniProt P11712)
Cytochrome P450 3A4 = Cytochrome P450 3A4 (Homo sapiens, UniProt P08684); details: Potency;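 also: confirmatory qHTS run detecting inhibitors and substrates of CYP3A4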
Cytochrome P450 3A4, sequence (P08684 whole entry): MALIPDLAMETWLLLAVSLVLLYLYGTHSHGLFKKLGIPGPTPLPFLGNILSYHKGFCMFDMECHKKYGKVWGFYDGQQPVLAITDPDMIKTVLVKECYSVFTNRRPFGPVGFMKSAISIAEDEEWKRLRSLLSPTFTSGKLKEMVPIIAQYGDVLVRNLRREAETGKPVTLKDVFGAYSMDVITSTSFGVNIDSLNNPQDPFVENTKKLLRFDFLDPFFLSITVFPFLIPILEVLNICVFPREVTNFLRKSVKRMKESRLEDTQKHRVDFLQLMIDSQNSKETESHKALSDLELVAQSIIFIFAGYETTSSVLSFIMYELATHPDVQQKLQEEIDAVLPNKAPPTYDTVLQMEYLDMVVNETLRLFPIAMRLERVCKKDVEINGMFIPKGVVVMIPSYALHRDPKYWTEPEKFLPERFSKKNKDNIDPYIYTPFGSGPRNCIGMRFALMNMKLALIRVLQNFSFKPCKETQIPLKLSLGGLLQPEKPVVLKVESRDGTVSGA

Kallikrein-7, sequence (P49862 whole entry, the tested form may be a part): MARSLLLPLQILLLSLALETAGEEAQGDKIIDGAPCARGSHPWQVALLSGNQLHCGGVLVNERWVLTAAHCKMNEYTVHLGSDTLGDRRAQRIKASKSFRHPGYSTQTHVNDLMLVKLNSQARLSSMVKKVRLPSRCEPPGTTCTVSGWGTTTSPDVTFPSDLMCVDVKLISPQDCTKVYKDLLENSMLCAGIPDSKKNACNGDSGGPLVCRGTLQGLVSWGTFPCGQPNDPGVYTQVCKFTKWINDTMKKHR
Disintegrin and metalloproteinase domain-containing protein 17, sequence (P78536 whole entry, the tested form may be a part): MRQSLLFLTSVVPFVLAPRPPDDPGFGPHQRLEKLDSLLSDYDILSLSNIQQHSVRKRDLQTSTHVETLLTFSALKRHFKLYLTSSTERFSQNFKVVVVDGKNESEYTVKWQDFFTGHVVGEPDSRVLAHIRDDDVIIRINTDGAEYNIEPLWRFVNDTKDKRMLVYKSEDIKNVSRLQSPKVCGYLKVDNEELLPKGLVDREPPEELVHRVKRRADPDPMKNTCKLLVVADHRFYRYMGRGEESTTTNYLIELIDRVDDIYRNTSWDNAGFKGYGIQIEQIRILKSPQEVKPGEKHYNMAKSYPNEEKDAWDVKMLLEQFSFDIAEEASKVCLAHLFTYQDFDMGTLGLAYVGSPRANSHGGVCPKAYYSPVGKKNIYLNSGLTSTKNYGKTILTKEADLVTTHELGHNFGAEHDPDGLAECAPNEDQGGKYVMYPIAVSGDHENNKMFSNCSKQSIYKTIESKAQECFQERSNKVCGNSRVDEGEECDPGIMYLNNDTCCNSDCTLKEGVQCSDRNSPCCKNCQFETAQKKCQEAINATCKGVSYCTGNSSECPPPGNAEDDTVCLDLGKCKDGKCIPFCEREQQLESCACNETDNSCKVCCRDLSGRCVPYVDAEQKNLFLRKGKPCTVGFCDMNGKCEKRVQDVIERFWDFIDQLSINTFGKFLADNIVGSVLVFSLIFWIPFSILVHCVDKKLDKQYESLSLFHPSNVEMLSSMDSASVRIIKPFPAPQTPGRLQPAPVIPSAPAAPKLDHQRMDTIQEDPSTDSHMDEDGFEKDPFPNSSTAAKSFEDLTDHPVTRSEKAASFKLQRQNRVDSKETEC
Cytochrome P450 2D6, sequence (P10635 whole entry, the tested form may be a part): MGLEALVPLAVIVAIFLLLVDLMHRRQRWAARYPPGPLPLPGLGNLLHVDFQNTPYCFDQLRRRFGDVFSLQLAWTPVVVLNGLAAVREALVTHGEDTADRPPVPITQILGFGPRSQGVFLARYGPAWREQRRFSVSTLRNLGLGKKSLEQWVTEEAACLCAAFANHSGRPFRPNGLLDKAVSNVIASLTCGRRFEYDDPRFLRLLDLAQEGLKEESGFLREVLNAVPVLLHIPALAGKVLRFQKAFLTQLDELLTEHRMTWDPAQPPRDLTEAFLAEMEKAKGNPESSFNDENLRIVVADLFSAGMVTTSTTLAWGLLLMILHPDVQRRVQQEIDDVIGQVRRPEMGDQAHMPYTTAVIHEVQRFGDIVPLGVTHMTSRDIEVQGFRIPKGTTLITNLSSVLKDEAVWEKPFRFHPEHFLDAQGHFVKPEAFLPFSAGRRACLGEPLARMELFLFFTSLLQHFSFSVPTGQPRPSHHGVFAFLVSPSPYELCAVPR
Cytochrome P450 2C9, sequence (P11712 whole entry): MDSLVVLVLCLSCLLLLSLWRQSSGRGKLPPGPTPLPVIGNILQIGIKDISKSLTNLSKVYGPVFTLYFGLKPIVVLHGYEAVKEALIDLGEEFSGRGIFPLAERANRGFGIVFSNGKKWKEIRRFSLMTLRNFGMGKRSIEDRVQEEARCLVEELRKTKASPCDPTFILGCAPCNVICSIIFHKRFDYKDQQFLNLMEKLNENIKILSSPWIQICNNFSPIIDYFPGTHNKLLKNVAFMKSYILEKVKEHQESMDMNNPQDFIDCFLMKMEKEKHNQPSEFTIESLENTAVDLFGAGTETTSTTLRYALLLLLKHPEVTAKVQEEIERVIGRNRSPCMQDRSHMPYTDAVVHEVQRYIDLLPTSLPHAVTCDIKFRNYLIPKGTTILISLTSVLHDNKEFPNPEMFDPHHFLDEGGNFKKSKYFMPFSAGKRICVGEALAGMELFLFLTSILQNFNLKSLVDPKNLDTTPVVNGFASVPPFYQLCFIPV

## O=[N+]([O-])c1ccc(CNc2ccc(F)cc2)s1
[1]
  CC50: > 40 µM (active)
[2]
  IC50: > 100 µM (active)

## C[C@@H]1CN([C@@H](C)CO)S(=O)(=O)c2ccc(C3=CCCC3)cc2O[C@@H]1CN(C)Cc1ccccc1F
[3]
  AC50: 23.9 µM (active)
HEK293
  AC50: 23.9 µM (active)

## C[C@H](O)[C@@H]1C(=O)N2CCc3c([nH]c4ccccc34)[C@@H]2C[C@@H]1N(C)C(=O)c1cc(Cl)cc(Cl)c1
Kallikrein-7
  EC50: > 23.2 µM (inactive)

## N#CC(C#N)=Cc1cccn1-c1ccc(C(=O)O)cc1
[4]
  EC50: > 300 µM (not active)
[5]
  AC50: > 20 µM (inactive)
[6]
  EC50: 160 µM (active)

## CNc1cncc(-c2ccc(OC)cc2)n1
Kallikrein-7
  EC50: > 69.5 µM (inactive)

## CCc1cc2c(O)c(-c3ccon3)c(=N)oc2cc1OC
[7]
  EC50: 0.591 µM (active)
[8]
  EC50: 1.5 µM (active)
[9]
  EC50: 6.58 µM (active)
[10]
  EC50: 7.6 µM (active)
[11]
  EC50: > 12 µM (not active)
H4
  EC50: 31.8 µM (active)

## Cc1ccccc1-n1c2nc(=O)n(C)c(=O)c-2cc2ccccc21
Kallikrein-7
  EC50: 85.3 µM (inactive)

## CCCCN1CCCCC1C(=O)Nc1c(C)cccc1C (stereo unspecified) [BUPIVACAINE]
[3]
  AC50: 35.7 µM (active)
HEK293
  AC50: 35.7 µM (active)

## Cc1ccc(CC(NC(=O)c2ccccc2)C(=O)NC(C)C(=O)O)cc1 (stereo unspecified)
[2]
  IC50: > 100 µM (active)

## Cc1ccccc1C(=O)Nc1ccc2c(c1)OCCO2
[12]
  AC50: 10.5 µM (active)
[13]
  AC50: 11.1 µM (active)
[14]
  AC50: > 52 µM (inactive)

## COc1cc(/C=N/O)cc(Br)c1OCc1ccc(Cl)cc1
Cytochrome P450 2D6
  AC50: 17.8 µM (inconclusive)
[15]
  IC50: > 69.5 µM (inactive)
Cytochrome P450 2C9
  AC50: inconclusive

## COc1cc2c(cc1OC)-c1c(OC)c(OC)c(C=O)c3c1[C@H](C2)N(C)CC3
Cytochrome P450 3A4
  AC50: 7.94 µM (inconclusive)
